Results reported in BindingDB's records for doi:10.1021/acs.jmedchem.1c01452 (Zhengzhou University, 2021).

Columns and labels:
[1] = Inhibition of ABCB1 (unknown origin) expressed in HEK293T cells assessed as reduction in colchicine IC50 at 2 uM pre-incubated for 4 hrs followed by colchicine addition and measured after 72 hrs by MTT assay
[2] = Inhibition of ABCB1 (unknown origin) expressed in HEK293T cells assessed as reduction in paclitaxel IC50 at 0.5 uM pre-incubated for 4 hrs followed by paclitaxel addition and measured after 72 hrs by MTT assay
[3] = Inhibition of ABCB1 (unknown origin) expressed in HEK293T cells assessed as reduction in paclitaxel IC50 at 1 uM pre-incubated for 4 hrs followed by paclitaxel addition and measured after 72 hrs by MTT assay
[4] = Inhibition of ABCB1 (unknown origin) expressed in HEK293T cells assessed as reduction in colchicine IC50 at 0.5 uM pre-incubated for 4 hrs followed by colchicine addition and measured after 72 hrs by MTT assay
[5] = Inhibition of ABCB1 (unknown origin) expressed in HEK293T cells assessed as reduction in paclitaxel IC50 at 2 uM pre-incubated for 4 hrs followed by paclitaxel addition and measured after 72 hrs by MTT assay
[6] = Inhibition of ABCB1 (unknown origin) expressed in HEK293T cells assessed as reduction in colchicine IC50 at 1 uM pre-incubated for 4 hrs followed by colchicine addition and measured after 72 hrs by MTT assay

SMILES: COc1cc2ncnc(-c3c(-c4ccccc4)n(Cc4ccccc4Br)c4ccccc34)c2cc1OCCCN1CCOCC1
- IC50 [1]: 22.2 µM
- IC50 [2]: 30.5 µM
- IC50 [3]: 12.2 µM
- IC50 [4]: 321 µM
- IC50 [5]: 3.6 µM
- IC50 [6]: 101 µM
